Results as given in PubChem BioAssay AID2060494 (Molecular Pharmacology Branch, DTP, NCI, 2025).
pIC50: −log10 of the molar value.

Tested on: 435261-313-R-J1-PDC complex spheroid viability
Assay: Anticancer human tumor 435261-313-R-J1-PDC patient-derived colon adenocarcinoma cell line growth inhibition [GQUAD]
Details: for pIC50: curve of first compound; for viability, T/C: stronger effect = lower value
In short: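 Multi-cell-type spheroids of tumor cells with HUVEC and mesenchymal stem cells, treated with drug combinations. Concentrations descend in half-log steps from near clinical Cmax, or from 10 microM where Cmax is unknown; viability read-out.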

[1] = second compound 0.0316 µM, first compound 0.0316 µM
[2] = second compound 0.0316 µM, first compound 0.1 µM
[3] = second compound 0.0316 µM, first compound 0.316 µM
[4] = second compound 0.0316 µM, first compound 1 µM
[5] = second compound 0.0316 µM, first compound 3.16 µM
[6] = second compound 0.0316 µM, first compound 10 µM
[7] = second compound 0.1 µM, first compound 0.0316 µM
[8] = second compound 0.1 µM, first compound 0.1 µM
[9] = second compound 0.1 µM, first compound 0.316 µM
[10] = second compound 0.1 µM, first compound 1 µM
[11] = second compound 0.1 µM, first compound 3.16 µM
[12] = second compound 0.1 µM, first compound 10 µM
[13] = second compound 0.316 µM, first compound 0.0316 µM
[14] = second compound 0.316 µM, first compound 0.1 µM
[15] = second compound 0.316 µM, first compound 0.316 µM
[16] = second compound 0.316 µM, first compound 1 µM
[17] = second compound 0.316 µM, first compound 3.16 µM
[18] = second compound 0.316 µM, first compound 10 µM
[19] = second compound 1 µM, first compound 0.0316 µM
[20] = second compound 1 µM, first compound 0.1 µM
[21] = second compound 1 µM, first compound 0.316 µM
[22] = second compound 1 µM, first compound 1 µM
[23] = second compound 1 µM, first compound 3.16 µM
[24] = second compound 1 µM, first compound 10 µM
[25] = second compound 3.16 µM, first compound 0.0316 µM
[26] = second compound 3.16 µM, first compound 0.1 µM
[27] = second compound 3.16 µM, first compound 0.316 µM
[28] = second compound 3.16 µM, first compound 1 µM
[29] = second compound 3.16 µM, first compound 3.16 µM
[30] = second compound 3.16 µM, first compound 10 µM
[31] = second compound 10 µM, first compound 0.0316 µM
[32] = second compound 10 µM, first compound 0.1 µM
[33] = second compound 10 µM, first compound 0.316 µM
[34] = second compound 10 µM, first compound 1 µM
[35] = second compound 10 µM, first compound 3.16 µM
[36] = second compound 10 µM, first compound 10 µM
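Note: spheroids exposed to the agents for seven days before readout.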
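Throughout, for viability, T/C: percent of vehicle control viability with DMSO wells as 100%.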

## CC(C)n1c(=O)n(C)c2cnc3cc(F)c(-c4ccc(OCCCN5CCCCC5)nc4)cc3c21 + Cc1cnc(CNC(=O)c2c(=O)c3ccc(N4CCCN(C)CC4)nc3n3c2sc2ccccc23)cn1
Second compound 0.0316 µM
  pIC50: 5.40
Second compound 0.1 µM
  pIC50: 5.33
Second compound 0.316 µM
  pIC50: 5.97
Second compound 1 µM
  pIC50: > 7.50
Second compound 3.16 µM
  pIC50: > 7.50
Second compound 10 µM
  pIC50: > 7.50
[1]
  viability, T/C: 81.5%
[2]
  viability, T/C: 68%
[3]
  viability, T/C: 74.5%
[4]
  viability, T/C: 56.7%
[5]
  viability, T/C: 61.4%
[6]
  viability, T/C: 32.5%
[7]
  viability, T/C: 61%
[8]
  viability, T/C: 61.6%
[9]
  viability, T/C: 63.3%
[10]
  viability, T/C: 57.8%
[11]
  viability, T/C: 60.9%
[12]
  viability, T/C: 28.6%
[13]
  viability, T/C: 50.7%
[14]
  viability, T/C: 64.7%
[15]
  viability, T/C: 52.8%
[16]
  viability, T/C: 49.3%
[17]
  viability, T/C: 42.9%
[18]
  viability, T/C: 30.9%
[19]
  viability, T/C: 42.4%
[20]
  viability, T/C: 45.1%
[21]
  viability, T/C: 45.7%
[22]
  viability, T/C: 48.1%
[23]
  viability, T/C: 26.1%
[24]
  viability, T/C: 5.54%
[25]
  viability, T/C: 14.6%
[26]
  viability, T/C: 8.86%
[27]
  viability, T/C: 7.48%
[28]
  viability, T/C: 16.6%
[29]
  viability, T/C: 5.15%
[30]
  viability, T/C: 0.23%
[31]
  viability, T/C: 0.18%
[32]
  viability, T/C: 0.2%
[33]
  viability, T/C: 0.2%
[34]
  viability, T/C: 0.18%
[35]
  viability, T/C: 0.29%
[36]
  viability, T/C: 0.16%

## CC1COCCN1c1cc(-c2ccnn2C)c2ccnc(-c3ccn[nH]3)c2n1 (stereo not drawn) + Cc1cnc(CNC(=O)c2c(=O)c3ccc(N4CCCN(C)CC4)nc3n3c2sc2ccccc23)cn1
Second compound 0.0316 µM
  pIC50: 6.53
Second compound 0.1 µM
  pIC50: 6.37
Second compound 0.316 µM
  pIC50: 6.50
Second compound 1 µM
  pIC50: > 7.50
Second compound 3.16 µM
  pIC50: > 7.50
Second compound 10 µM
  pIC50: > 7.50
[1]
  viability, T/C: 72.1%
[2]
  viability, T/C: 54.9%
[3]
  viability, T/C: 54.7%
[4]
  viability, T/C: 35.4%
[5]
  viability, T/C: 36.2%
[6]
  viability, T/C: 23.9%
[7]
  viability, T/C: 61.8%
[8]
  viability, T/C: 59.4%
[9]
  viability, T/C: 52.4%
[10]
  viability, T/C: 42.2%
[11]
  viability, T/C: 30.6%
[12]
  viability, T/C: 21.3%
[13]
  viability, T/C: 51.8%
[14]
  viability, T/C: 57.6%
[15]
  viability, T/C: 50.5%
[16]
  viability, T/C: 37.9%
[17]
  viability, T/C: 26.5%
[18]
  viability, T/C: 15.1%
[19]
  viability, T/C: 36.5%
[20]
  viability, T/C: 41.9%
[21]
  viability, T/C: 34.6%
[22]
  viability, T/C: 26.3%
[23]
  viability, T/C: 13.4%
[24]
  viability, T/C: 9.95%
[25]
  viability, T/C: 22.4%
[26]
  viability, T/C: 21.2%
[27]
  viability, T/C: 11.5%
[28]
  viability, T/C: 4.04%
[29]
  viability, T/C: 3.7%
[30]
  viability, T/C: 2.53%
[31]
  viability, T/C: 0.11%
[32]
  viability, T/C: 0.14%
[33]
  viability, T/C: 0.18%
[34]
  viability, T/C: 0.15%
[35]
  viability, T/C: 0.16%
[36]
  viability, T/C: 0.15%

## CC1COCCN1c1cc(C2(O)CC3CCC(C2)O3)c2cnn(-c3ccn[nH]3)c2n1 (stereo not drawn) + Cc1cnc(CNC(=O)c2c(=O)c3ccc(N4CCCN(C)CC4)nc3n3c2sc2ccccc23)cn1
Second compound 0.0316 µM
  pIC50: 7.02
Second compound 0.1 µM
  pIC50: 6.98
Second compound 0.316 µM
  pIC50: 7.31
Second compound 1 µM
  pIC50: > 7.50
Second compound 3.16 µM
  pIC50: > 7.50
Second compound 10 µM
  pIC50: > 7.50
[1]
  viability, T/C: 59.8%
[2]
  viability, T/C: 48%
[3]
  viability, T/C: 42.8%
[4]
  viability, T/C: 24.6%
[5]
  viability, T/C: 23.5%
[6]
  viability, T/C: 11.2%
[7]
  viability, T/C: 49.5%
[8]
  viability, T/C: 57.9%
[9]
  viability, T/C: 38.2%
[10]
  viability, T/C: 26.6%
[11]
  viability, T/C: 22.3%
[12]
  viability, T/C: 10.1%
[13]
  viability, T/C: 51.5%
[14]
  viability, T/C: 47.9%
[15]
  viability, T/C: 37.2%
[16]
  viability, T/C: 27.7%
[17]
  viability, T/C: 18.8%
[18]
  viability, T/C: 8.98%
[19]
  viability, T/C: 38.5%
[20]
  viability, T/C: 36.1%
[21]
  viability, T/C: 23.1%
[22]
  viability, T/C: 15.7%
[23]
  viability, T/C: 11.3%
[24]
  viability, T/C: 4.12%
[25]
  viability, T/C: 12.3%
[26]
  viability, T/C: 14.2%
[27]
  viability, T/C: 6.28%
[28]
  viability, T/C: 0.12%
[29]
  viability, T/C: 0.15%
[30]
  viability, T/C: 0.09%
[31]
  viability, T/C: 0.8%
[32]
  viability, T/C: 0.14%
[33]
  viability, T/C: 0.17%
[34]
  viability, T/C: 0.18%
[35]
  viability, T/C: 0.19%
[36]
  viability, T/C: 0.13%

## CC1COCCN1c1cc(C2(S(C)(=N)=O)CC2)nc(-c2ccnc3[nH]ccc23)n1 (stereo not drawn) + Cc1cnc(CNC(=O)c2c(=O)c3ccc(N4CCCN(C)CC4)nc3n3c2sc2ccccc23)cn1
Second compound 0.0316 µM
  pIC50: 5.42
Second compound 0.1 µM
  pIC50: 5.49
Second compound 0.316 µM
  pIC50: 5.63
Second compound 1 µM
  pIC50: > 7.50
Second compound 3.16 µM
  pIC50: > 7.50
Second compound 10 µM
  pIC50: > 7.50
[1]
  viability, T/C: 52.9%
[2]
  viability, T/C: 57.6%
[3]
  viability, T/C: 66.8%
[4]
  viability, T/C: 53.9%
[5]
  viability, T/C: 49.2%
[6]
  viability, T/C: 42.7%
[7]
  viability, T/C: 41.4%
[8]
  viability, T/C: 66.6%
[9]
  viability, T/C: 46.2%
[10]
  viability, T/C: 45.9%
[11]
  viability, T/C: 50.6%
[12]
  viability, T/C: 38.8%
[13]
  viability, T/C: 53.5%
[14]
  viability, T/C: 55.8%
[15]
  viability, T/C: 60.6%
[16]
  viability, T/C: 55.1%
[17]
  viability, T/C: 44.9%
[18]
  viability, T/C: 40.5%
[19]
  viability, T/C: 31.8%
[20]
  viability, T/C: 37.9%
[21]
  viability, T/C: 35.9%
[22]
  viability, T/C: 41.5%
[23]
  viability, T/C: 31.3%
[24]
  viability, T/C: 26%
[25]
  viability, T/C: 18.1%
[26]
  viability, T/C: 10.2%
[27]
  viability, T/C: 21%
[28]
  viability, T/C: 18.6%
[29]
  viability, T/C: 17.3%
[30]
  viability, T/C: 5.09%
[31]
  viability, T/C: 0.26%
[32]
  viability, T/C: 0.15%
[33]
  viability, T/C: 0.17%
[34]
  viability, T/C: 0.18%
[35]
  viability, T/C: 0.2%
[36]
  viability, T/C: 0.21%
